This is an account of results in article PMC8159961, “Exploring protein hotspots by optimized fragment pharmacophores” (Nature Communications, 2021).

SMILES strings stand for the structures. “And” between values parts separate entries of the source, which are not always exact repeats. Equal values may be shown once. Read-outs that look alike come from different tables or passages of the source.

In general, Ki refers to the dissociation constant of the complex between target and ligand, obtained from inhibition or displacement. Broadly, the IC50 is the concentration that gives 50% inhibition.

The target of test [1] is T1, human 5-HT1A receptor (Homo sapiens, UniProt P08908).
T1 construct: expressed in transfected cells
T1 sequence (P08908 1-422): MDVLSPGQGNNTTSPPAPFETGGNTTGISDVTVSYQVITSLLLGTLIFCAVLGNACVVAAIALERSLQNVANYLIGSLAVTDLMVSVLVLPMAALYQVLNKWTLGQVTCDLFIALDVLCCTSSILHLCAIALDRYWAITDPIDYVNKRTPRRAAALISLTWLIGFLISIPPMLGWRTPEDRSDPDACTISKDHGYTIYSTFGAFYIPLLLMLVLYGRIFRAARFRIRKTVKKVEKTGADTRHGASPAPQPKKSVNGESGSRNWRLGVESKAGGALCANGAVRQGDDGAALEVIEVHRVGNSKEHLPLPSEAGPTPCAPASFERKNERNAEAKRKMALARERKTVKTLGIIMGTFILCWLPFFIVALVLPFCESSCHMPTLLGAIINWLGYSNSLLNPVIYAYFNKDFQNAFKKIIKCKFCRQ
The experiment in a line: GPCR radioligand binding assay, [3H]-8-OH-DPAT displacement, HEK293 membranes. The following applies: for experimental hit status, 5-HT1: 1 = hit, 0 = no hit, tested at 10 µM, hit = 50% or stronger inhibition.

The target of test [2] is T2, human 5-HT6 receptor (Homo sapiens, UniProt P50406).
T2 construct: expressed in transfected cells
The experiment in a line: GPCR radioligand binding assay, [3H]-LSD displacement, HEK293 membranes. The following applies: for experimental hit status, 5-HT6: 1 = hit, 0 = no hit, tested at 10 µM, hit = 50% or stronger inhibition.

Test [3] has as its target T3, human 5-HT7b receptor (Homo sapiens, UniProt P34969).
T3 construct: expressed in transfected cells
As to the kind of experiment: GPCR radioligand binding assay, [3H]-5-CT displacement, HEK293 membranes. To be noted: for experimental hit status, 5-HT7: 1 = hit, 0 = no hit, tested at 10 µM, hit = 50% or stronger inhibition.

In test [4] the target is T4, human thrombin (Homo sapiens, UniProt P00734).
T4 construct: human thrombin; purchased Sigma-Aldrich
As to the kind of experiment: Protease inhibitory assay, chromogenic substrate S-2238. The format is biochemical. The following applies: for Ki: plate layout, label = plate position, Cheng-Prusoff, Km 2.6 µM, read-out: Thrombin Ki; for experimental hit status, Thrombin: 1 = hit, 0 = no hit, screening at 200 µM.

Test [5] addresses T5, bovine factor Xa (Bos taurus, UniProt P00743).
T5 construct: bovine factor Xa, Chromogenix, 2 nkat/mL; purchased Chromogenix
As to the kind of experiment: Protease inhibitory assay, chromogenic substrate S-2222. Format: biochemical. The following applies: for experimental hit status, Factor Xa: 1 = hit, 0 = no hit, screening at 200 µM.

The target in test [6] is T6, recombinant SETD2 (Homo sapiens, UniProt Q9BYW2).
T6 construct: purchased BPS Bioscience 52060
T6 sequence (Q9BYW2 1418-1714 limits assumed): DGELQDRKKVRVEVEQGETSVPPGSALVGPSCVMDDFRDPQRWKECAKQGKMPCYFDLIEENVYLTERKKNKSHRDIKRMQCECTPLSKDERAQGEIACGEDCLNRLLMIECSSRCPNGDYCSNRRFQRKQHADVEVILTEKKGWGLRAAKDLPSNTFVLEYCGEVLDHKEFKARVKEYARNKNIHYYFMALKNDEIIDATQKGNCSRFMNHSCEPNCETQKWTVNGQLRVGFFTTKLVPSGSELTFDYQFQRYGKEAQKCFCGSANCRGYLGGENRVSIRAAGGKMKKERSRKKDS
The experiment in a line: SETD2 Chemiluminescence assay (H3K36 tri-methylation). The format is biochemical. The following applies: for experimental hit status, SETD2: 1 = hit, 0 = no hit; for SETD2 signal normalised to positive control and internally to compound: nM], replicates.

Setting [7] is: 10 µM, read-out: 5-HT1A % Inhibition by plate position.
The mark [8] stands for this setting: 5-HT1A, average of exp_1 and exp_2, read-out: %inh 5-HT1A average.
Where [9] appears, read: 5-HT1A, average, values below 0 and above 100% were set as 0 and 100, read-out: %inh 5-HT1A corrected*.
The mark [10] stands for this setting: 5-HT1A, replicate exp_1, read-out: %inh 5-HT1A exp_1.
[11] abbreviates: 5-HT1A, replicate exp_2, read-out: %inh 5-HT1A exp_2.
Setting [12] is: 10 µM, read-out: 5-HT6 % Inhibition by plate position.
[13] abbreviates: 5-HT6, average of exp_1 and exp_2, read-out: %inh 5-HT6 average.
Setting [14] is: 5-HT6, average, values below 0 and above 100% were set as 0 and 100, read-out: %inh 5-HT6 corrected*.
Setting [15] is: 5-HT6, replicate exp_1, read-out: %inh 5-HT6 exp_1.
[16] abbreviates: 5-HT6, replicate exp_2, read-out: %inh 5-HT6 exp_2.
Setting [17] is: 10 µM, read-out: 5-HT7 % Inhibition by plate position.
Where [18] appears, read: 5-HT7, average of exp_1 and exp_2, read-out: %inh 5-HT7 average.
Where [19] appears, read: 5-HT7, average, values below 0 and above 100% were set as 0 and 100, read-out: %inh 5-HT7 corrected*.
[20] abbreviates: 5-HT7, replicate exp_1, read-out: %inh 5-HT7 exp_1.
Setting [21] is: 5-HT7, replicate exp_2, read-out: %inh 5-HT7 exp_2.

T3 sequence (P34969 1-432): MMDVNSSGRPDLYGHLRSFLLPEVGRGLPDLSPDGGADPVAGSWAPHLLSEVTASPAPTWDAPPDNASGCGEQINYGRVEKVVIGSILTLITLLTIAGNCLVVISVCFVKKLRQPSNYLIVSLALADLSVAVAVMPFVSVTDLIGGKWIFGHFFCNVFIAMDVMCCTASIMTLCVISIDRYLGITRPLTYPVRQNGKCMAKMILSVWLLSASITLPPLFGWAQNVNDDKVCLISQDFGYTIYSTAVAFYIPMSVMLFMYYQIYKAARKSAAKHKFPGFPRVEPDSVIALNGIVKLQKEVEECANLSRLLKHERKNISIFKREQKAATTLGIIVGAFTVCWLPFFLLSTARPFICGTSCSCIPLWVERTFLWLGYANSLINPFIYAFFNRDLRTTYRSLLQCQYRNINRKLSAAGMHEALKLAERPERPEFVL
T5 sequence (P00743 234-492 limits assumed): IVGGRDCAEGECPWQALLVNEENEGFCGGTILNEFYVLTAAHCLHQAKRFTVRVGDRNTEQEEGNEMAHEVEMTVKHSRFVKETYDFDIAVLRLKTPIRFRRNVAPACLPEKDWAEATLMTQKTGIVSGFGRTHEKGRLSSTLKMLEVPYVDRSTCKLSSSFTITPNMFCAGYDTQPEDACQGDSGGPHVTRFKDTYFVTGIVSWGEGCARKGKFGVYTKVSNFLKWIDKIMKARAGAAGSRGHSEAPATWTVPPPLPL
T5 sequence (P00743 41-180 partner limits assumed): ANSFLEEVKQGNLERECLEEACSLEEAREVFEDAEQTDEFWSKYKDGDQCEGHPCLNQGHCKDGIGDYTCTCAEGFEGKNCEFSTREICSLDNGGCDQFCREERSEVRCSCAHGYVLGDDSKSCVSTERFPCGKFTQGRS
T2 sequence (P50406 whole entry): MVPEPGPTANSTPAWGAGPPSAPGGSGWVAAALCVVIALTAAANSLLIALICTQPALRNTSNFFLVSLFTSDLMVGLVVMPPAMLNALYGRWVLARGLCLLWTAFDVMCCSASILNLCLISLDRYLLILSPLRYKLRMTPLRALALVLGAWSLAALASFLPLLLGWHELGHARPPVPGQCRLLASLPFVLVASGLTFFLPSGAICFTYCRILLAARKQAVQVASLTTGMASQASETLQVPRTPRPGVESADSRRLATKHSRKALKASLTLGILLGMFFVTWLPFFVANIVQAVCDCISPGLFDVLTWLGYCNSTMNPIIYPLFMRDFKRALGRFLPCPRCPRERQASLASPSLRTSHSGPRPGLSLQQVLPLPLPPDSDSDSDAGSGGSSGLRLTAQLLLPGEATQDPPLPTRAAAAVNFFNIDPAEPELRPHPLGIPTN

Consider `CC(=O)c1sc(-c2ccc(O)cc2)nc1C` [E1], for which the inhibition at 10 µM in test [1] (setting [7]) is 0%; in test [1] (setting [8]) it was -8.44%; in test [1] (setting [9]), 0%; in test [1] (setting [10]) it was 1.63%; in test [1] (setting [11]), -19%; in test [2] (setting [12]), 65%. Further, the inhibition at 10 µM in test [2] (setting [13]) is 65%; in test [2] (setting [14]) it was 65%; in test [2] (setting [15]), 71%; in test [2] (setting [16]), 58%; in test [3] (setting [17]) it was 43%; in test [3] (setting [18]), 43%. Besides, the inhibition at 10 µM came out at 43% in test [3] (setting [19]), 36% in test [3] (setting [20]) and 50% in test [3] (setting [21]). Moreover, the Ki amounted to 229 µM in test [4] and 734 µM in test [5].
For the molecule `Cc1cc2ccccc2nc1N` [SX001], the inhibition at 10 µM in test [1] (setting [7]) was 0%; in test [1] (setting [8]), -13%; in test [1] (setting [9]), 0%; in test [1] (setting [10]), -0.697%; in test [1] (setting [11]) it was -25%; in test [2] (setting [12]), 33%. In addition, the inhibition at 10 µM amounted to 33% in test [2] (setting [13]); 33% in test [2] (setting [14]); 29% in test [2] (setting [15]); 37% in test [2] (setting [16]); 1.66% in test [3] (setting [17]); 1.66% in test [3] (setting [18]). Moreover, the inhibition at 10 µM is 1.66% in test [3] (setting [19]), 7% in test [3] (setting [20]) and -3.75% in test [3] (setting [21]). The “experimental hit status, 5-HT1” value in test [1] came to 0. Moreover, the “experimental hit status, 5-HT6” value in test [2] worked out at 0. Moreover, the “experimental hit status, 5-HT7” value in test [3] stood at 0. Also, the “experimental hit status, Thrombin” value in test [4] was determined as 0. The molecule further yielded a Ki in test [5] of 149 µM. In addition, the “experimental hit status, Factor Xa” value in test [5] worked out at 1. For the same molecule, in test [6], the “experimental hit status, SETD2” value was 0.
As to `c1cnc2cccnc2c1` [SX002], the inhibition at 10 µM is 0% in test [1] (setting [7]); -0.719% in test [1] (setting [8]); 0% in test [1] (setting [9]); -9% in test [1] (setting [10]); 8% in test [1] (setting [11]); 24% in test [2] (setting [12]). The inhibition at 10 µM in test [2] (setting [13]) came out at 24%; in test [2] (setting [14]), 24%; in test [2] (setting [15]), 27%; in test [2] (setting [16]) it was 21%; in test [3] (setting [17]), 35%; in test [3] (setting [18]), 35%. Further, the inhibition at 10 µM in test [3] (setting [19]) was 35%; in test [3] (setting [20]) it was 39%; in test [3] (setting [21]) it was 31%. For the same molecule, the “experimental hit status, 5-HT1” value in test [1] is 0. Moreover, in test [2], the “experimental hit status, 5-HT6” value is listed as 0. Also, in test [3], the “experimental hit status, 5-HT7” value was determined as 0. The “experimental hit status, Thrombin” value in test [4] was 1. For the same molecule, the Ki in test [4] came to 163 µM. Moreover, the “experimental hit status, Factor Xa” value in test [5] is reported as 0. Besides, the “experimental hit status, SETD2” value in test [6] is recorded as 0.
For `c1ccc2[nH]ccc2c1` [SX004], in test [1], the “experimental hit status, 5-HT1” value is reported as 0. Further, the inhibition at 10 µM was 0% in test [1] (read-out: 5-HT1A % Inhibition by plate position); -11% in test [1] (read-out: %inh 5-HT1A average); 0% in test [1] (read-out: %inh 5-HT1A corrected*); -0.425% in test [1] (read-out: %inh 5-HT1A exp_1); -21% in test [1] (read-out: %inh 5-HT1A exp_2); 16% in test [2] (read-out: 5-HT6 % Inhibition by plate position). Further, the inhibition at 10 µM in test [2] (read-out: %inh 5-HT6 average) is 16%; in test [2] (read-out: %inh 5-HT6 corrected*), 16%; in test [2] (read-out: %inh 5-HT6 exp_1), 16%; in test [2] (read-out: %inh 5-HT6 exp_2), 16%; in test [3] (read-out: 5-HT7 % Inhibition by plate position), 0%; in test [3] (read-out: %inh 5-HT7 average), -2.64%. The values for the inhibition at 10 µM in test [3] (read-out: %inh 5-HT7 corrected*), in test [3] (read-out: %inh 5-HT7 exp_1) and in test [3] (read-out: %inh 5-HT7 exp_2) were 0%, 19% and -24%, respectively. Also, the “experimental hit status, 5-HT6” value in test [2] worked out at 0. In addition, the “experimental hit status, 5-HT7” value in test [3] was found to be 0. Also, the “experimental hit status, Thrombin” value in test [4] was determined as 0. The “experimental hit status, Factor Xa” value in test [5] was 0. The “experimental hit status, SETD2” value in test [6] was found to be 0.
In the case of `CS(=O)(=O)Nc1ccc(C(=O)O)cc1` [SX084], the inhibition at 10 µM was determined as 9% in test [1] (setting [7]); 9% in test [1] (setting [8]); 9% in test [1] (setting [9]); 9% in test [1] (setting [10]); 9% in test [1] (setting [11]); 38% in test [2] (setting [12]). The inhibition at 10 µM was 38% in test [2] (setting [13]); 38% in test [2] (setting [14]); 38% in test [2] (setting [15]); 38% in test [2] (setting [16]); 9% in test [3] (setting [17]); 9% in test [3] (setting [18]). The inhibition at 10 µM in test [3] (setting [19]) came out at 9%; in test [3] (setting [20]), 5.33%; in test [3] (setting [21]) it was 13%. Moreover, the IC50 in test [6] (chemiluminescence-based enzymatic assay) amounted to 500 µM. For the same molecule, the “SETD2 signal normalised to positive control and internally to compound” value was 1.05 and 0.84 in test [6] (fragment concentration 4.7 [log); 0.76 and 0.6 in test [6] (fragment concentration 5 [log); 0.62 and 0.74 in test [6] (fragment concentration 5.3 [log); 0.8 and 0.95 in test [6] (fragment concentration 5.6 [log); 0.66 and 0.73 in test [6] (fragment concentration 5.9 [log).
